Publication PMC7187253 (Clinical Pharmacology in Drug Development, 2019)
Read-outs that look alike come from different tables or passages of the source.

Assays:
[1] = test system: extracellular 5‐HT levels; settings: compared with sertraline; cited from earlier work
[2] = test system: cardiac repolarization in healthy subjects; assay: PK/PD exposure‐response analysis of QTcF; settings: for Estimated slope of the regression for ∆QTcF versus plasma concentration: separate PK/PD models for sertraline and N‐desmethylsertraline concentration
[3] = type: in vivo, human; settings: for MR (metabolite‐to‐parent ratio for AUC24), geometric mean (%CV): corrected for molecular weight; for Cmin, geometric mean (%CV): 0‐24 h after last dose; for AUC(0-t): AUClast
QTc interval = settings: cited from earlier work
CYP2C9 = settings: cited from earlier work
[4] = cited from earlier work
healthy subjects = assay: Safety assessments; type: in vivo, human; settings: for Fatigue / Headache / Insomnia / TEAEs considered treatment related / Total TEAEs reported / Subjects reporting ≥1 AE: during treatment period; for Subjects reporting ≥1 AE: sertraline n = 52, moxifloxacin n = 50
CYP1A2 = settings: cited from earlier work
Kv1.5 = settings: Chinese hamster ovary cells; cited from earlier work
CYP2C19 = settings: cited from earlier work
[5] = ref Pfizer Inc, data on file, cited from earlier work
CYP2D6 = settings: cited from earlier work
[6] = cited from earlier work; remark: listed apart in the source
[7] = test system: cardiac repolarization in healthy subjects
[8] = Day 1, sertraline 50 mg single dose
[9] = Day 1, sertraline 50 mg single dose, plasma, healthy subjects
[10] = Day 14, sertraline 400 mg/day multiple dose
[11] = patients admitted for sertraline overdose (>200 mg)
[12] = human, plasma, 400 mg/day, arithmetic mean ± SD, Day 14, sertraline 400 mg/day multiple dose
[13] = 1 h after dosing on day 14, sertraline 400 mg/day
[14] = 2 h after dosing on day 14, sertraline 400 mg/day
[15] = 3 h after dosing on day 14, sertraline 400 mg/day
[16] = 4 h after dosing on day 14, sertraline 400 mg/day
[17] = 5 h after dosing on day 14, sertraline 400 mg/day
[18] = 6 h after dosing on day 14, sertraline 400 mg/day
[19] = 8 h after dosing on day 14, sertraline 400 mg/day
[20] = 12 h after dosing on day 14, sertraline 400 mg/day
[21] = 24 h after dosing on day 14, sertraline 400 mg/day
[22] = categorical analysis of maximum postdose QTcF

For `N[C@H]1CC[C@@H](c2ccc(Cl)c(Cl)c2)c2ccccc21` [N‐desmethylsertraline], which “Effect on extracellular 5‐HT levels” value [1] is on record?
The value was “lack of effect”.

And the “Estimated slope of the regression for ∆QTcF versus plasma concentration” value [2]?
Its value is 0.036 ms/ng/mL.

And the “AUC24, arithmetic mean ± SD” value [3, 8]?
Its value is 79.03 ± 19.199 ng·h/mL.

And the “AUC24, geometric mean (%CV)” value [3, 8]?
Its value is 76.87 (24) ng • h/mL.

And the “Cmax, arithmetic mean ± SD” value [3, 8]?
Its value is 4.428 ± 1.3189 ng/mL.

And the “MR (metabolite‐to‐parent ratio for AUC24), arithmetic mean ± SD” value [3, 8]?
The value was 0.5493 ± 0.1743.

And the “tmax, median (range)” value [3, 8]?
Its value is 12.0 (5.00‐23.9) h.

What about the “Cmax, geometric mean (%CV)” value [3, 9] of the same compound?
Its value is 4.269 (27) ng/mL.

What about the “MR (metabolite‐to‐parent ratio for AUC24), geometric mean (%CV)” value [3, 8] of the same compound?
Its value is 0.5222 (34).

And the “Cmax, geometric mean (%CV)” value ([3]; Day 14, sertraline 400 mg/day (200 mg BID, only morning dose on day 14), multiple dose, plasma)?
The value was 249.6 (23) ng/mL.

And the “AUC24, arithmetic mean ± SD” value [3, 10]?
Its value is 5342 ± 1109.5 ng·h/mL.

And the “AUC24, geometric mean (%CV)” value [3, 10]?
The value was 5227 (22) ng • h/mL.

And the “AUClast, arithmetic mean ± SD” value [3, 10]?
Its value is 13500 ± 3225.2 ng·h/mL.

And the “AUClast, geometric mean (%CV)” value [3, 10]?
Its value is 13110 (25) ng • h/mL.

What about the “Cmin, arithmetic mean ± SD” value [3, 10] of the same compound?
Its value is 188.4 ± 39.567 ng/mL.

And the “MR (metabolite‐to‐parent ratio for AUC24), arithmetic mean ± SD” value [3, 10]?
The value was 1.283 ± 0.3075.

What about the “tmax, median (range)” value [3, 10] of the same compound?
The value was 8.00 (1.07‐12.1) h.

What about the “Cmin, geometric mean (%CV)” value [3, 10] of the same compound?
Its value is 184.1 (23) ng/mL.

And the “MR (metabolite‐to‐parent ratio for AUC24), geometric mean (%CV)” value [3, 10]?
Its value is 1.248 (24).

With `CN[C@H]1CC[C@@H](c2ccc(Cl)c(Cl)c2)c2ccccc21` [sertraline] as the compound, how does the “Incidence of maximum QTcB interval prolongation (males >450 ms; females >460 ms)” value (QTc interval; ECG database, dosing and concomitant medications unknown) read?
Its value is 7.9%.

And the “Increase in QT/QTc interval” value (QTc interval; clinical trials, sertraline 50‐200 mg/day, major depression)?
Its value is “No statistically significant increase”.

And the “Mean increase in QTc interval compared with placebo” value (QTc interval; meta‐analysis of study‐level trial data, sertraline 50‐200 mg/day)?
The value was 3.0 millisecond.

What about the “Incidence of QTc interval >500 ms” value (QTc interval; [11]) of the same compound?
The value was 6%.

What about the “Incidence of QTc interval greater than 440 ms” value (QTc interval; [11]) of the same compound?
The value was 40%.

And the “Mean QTcF increase” value (QTc interval; prospective, cross‐sectional population‐based study (n = 42))?
Its value is 1.7 milliseconds.

What about the CYP2C9 inhibitor class (CYP2C9) of the same compound?
Its CYP2C9 inhibitor class is “weak inhibitor”.

And the Maximum tolerated dose [4]?
The Maximum tolerated dose was 400 mg/day.

And the “Predicted mean ∆∆QTcF” value ([2]; at mean supratherapeutic Cmax of 234 ng/mL on day 14)?
Its value is 8.93 milliseconds.

And the “Predicted mean ∆ΔQTcF (change from baseline QTcF adjusted for placebo)” value ([2]; at mean therapeutic maximum plasma sertraline concentration of 86 ng/mL (200 mg/day))?
Its value is 3.57 milliseconds.

What about the “Predicted mean ∆∆QTcF” value ([2]; at peak plasma sertraline concentration 223.5 ng/mL) of the same compound?
The value was 8.55 milliseconds.

And the “Estimated slope of the regression for ∆QTcF versus plasma concentration” value [2]?
The value was 0.036 ms/ng/mL.

And the Fatigue (healthy subjects)?
Its Fatigue is 17 subjects.

And the Headache (healthy subjects)?
Its Headache is 18 subjects.

What about the Insomnia (healthy subjects) of the same compound?
The Insomnia was 22 subjects.

And the “TEAEs considered treatment related” value (healthy subjects)?
The value was 238.

What about the “Total TEAEs reported” value (healthy subjects) of the same compound?
Its value is 251.

And the “Subjects reporting ≥1 AE” value (healthy subjects)?
The value was 45 subjects.

And the “Severe AE / SAE (psychiatric decompensation)” value (healthy subjects; subject withdrawn, resolved the same day)?
The value was “single severe AE”.

What about the “Discontinued study treatment due to an AE (asthma)” value (healthy subjects; while receiving sertraline treatment) of the same compound?
Its value is “One additional subject”.

And the CYP1A2 inhibitor class (CYP1A2)?
Its CYP1A2 inhibitor class is “weak inhibitor”.

What about the “Effect on Kv1.5” value (Kv1.5) of the same compound?
The value was “voltage‐dependent inhibition”.

And the CYP2C19 inhibitor class (CYP2C19)?
The CYP2C19 inhibitor class was “weak inhibitor”.

And the “Cmax at 400 mg/day relative to Cmax at 200 mg/day” value ([5]; day 14)?
The value was “approximately 3 times”.

What about the “Mean Cmax” value ([5]; sertraline 400 mg/day, day 14, healthy subjects) of the same compound?
Its value is 282 ng/mL.

And the CYP2D6 inhibitor class (CYP2D6)?
Its CYP2D6 inhibitor class is “weak to moderate inhibitor”.

What about the “Cmax, geometric mean (%CV)” value [3, 9] of the same compound?
The value was 11.39 (37) ng/mL.

And the “Cmin, arithmetic mean ± SD” value [3, 10]?
Its value is 146.1 ± 57.093 ng/mL.

What about the “Rac (observed accumulation ratio of AUC), arithmetic mean ± SD” value [3, 10] of the same compound?
The value was 3.71 ± 0.82.

What about the “Rac (observed accumulation ratio of AUC), geometric mean (%CV)” value [3, 10] of the same compound?
Its value is 3.62 (22.79).

What about the “Cmin, geometric mean (%CV)” value [3, 10] of the same compound?
Its value is 135.3 (43) ng/mL.

What about the Tmax ([3]; human, plasma, 50 mg) of the same compound?
Its Tmax is 5.06 h.

What about the AUC ([3]; human, plasma, 50 mg, AUC24, arithmetic mean ± SD, Day 1, sertraline 50 mg single dose) of the same compound?
Its AUC is 162 ± 50.3 ng·h/mL.

And the AUC ([3]; human, plasma, 50 mg, AUC24, geometric mean (%CV), Day 1, sertraline 50 mg single dose)?
Its AUC is 154 ng·h/mL.

And the Cmax ([3]; human, plasma, 50 mg, arithmetic mean ± SD, Day 1, sertraline 50 mg single dose)?
Its Cmax is 12.1 ± 4.34 ng/mL.

And the Cmax ([3]; human, plasma, 50 mg, geometric mean (%CV), Day 1, sertraline 50 mg single dose, plasma, healthy subjects)?
Its Cmax is 11.4 ng/mL.

And the concentration at 4 h ([3]; human, plasma, 400 mg/day)?
The concentration at 4 h was 213 ng/mL.

What about the AUC ([3]; human, plasma, 400 mg/day, AUC24, arithmetic mean ± SD, Day 14, sertraline 400 mg/day multiple dose) of the same compound?
Its AUC is 4650 ± 1580 ng·h/mL.

What about the AUC ([3]; human, plasma, 400 mg/day, AUC24, geometric mean (%CV), Day 14, sertraline 400 mg/day multiple dose) of the same compound?
The AUC was 4390 ng·h/mL.

What about the AUC(0-t) [3, 12] of the same compound?
Its AUC(0-t) is 9190 ± 3720 ng·h/mL.

And the AUC(0-t) ([3]; human, plasma, 400 mg/day, geometric mean (%CV), Day 14, sertraline 400 mg/day multiple dose)?
The AUC(0-t) was 8490 ng·h/mL.

What about the Cmax [3, 12] of the same compound?
Its Cmax is 246 ± 80.6 ng/mL.

And the Cmax ([3]; human, plasma, 400 mg/day, geometric mean (%CV), Day 14, sertraline 400 mg/day (200 mg BID, only morning dose on day 14), multiple dose, plasma)?
Its Cmax is 234 ng/mL.

What about the “Increase in exposure with hepatic impairment” value ([6]; hepatic impairment) of the same compound?
Its value is 1.7 fold.

What about the “QTcF, Least Squares Difference (Sertraline‐Placebo)” value (“QTcF, Least Squares Difference” for short) [7, 13] of the same compound?
Its value is 6.957 ms.

What about the “QTcF, Least Squares Mean” value [7, 13] of the same compound?
Its value is 414.299 ms.

What about the “QTcF, Least Squares Difference” value [7, 14] of the same compound?
The value was 7.851 ms.

What about the “QTcF, Least Squares Mean” value [7, 14] of the same compound?
Its value is 415.625 ms.

What about the “QTcF, Least Squares Difference” value [7, 15] of the same compound?
The value was 7.824 ms.

What about the “QTcF, Least Squares Mean” value [7, 15] of the same compound?
Its value is 416.465 ms.

And the “QTcF, Least Squares Difference” value [7, 16]?
Its value is 9.651 ms.

What about the “QTcF, Least Squares Mean” value [7, 16] of the same compound?
Its value is 418.252 ms.

And the “QTcF, Least Squares Difference” value [7, 17]?
The value was 7.377 ms.

What about the “QTcF, Least Squares Mean” value [7, 17] of the same compound?
Its value is 411.285 ms.

And the “QTcF, Least Squares Difference” value [7, 18]?
The value was 6.511 ms.

What about the “QTcF, Least Squares Mean” value [7, 18] of the same compound?
The value was 408.985 ms.

And the “QTcF, Least Squares Difference” value [7, 19]?
The value was 5.597 ms.

And the “QTcF, Least Squares Mean” value [7, 19]?
The value was 408.732 ms.

And the “QTcF, Least Squares Difference” value [7, 20]?
Its value is 5.677 ms.

And the “QTcF, Least Squares Mean” value [7, 20]?
Its value is 411.019 ms.

And the “QTcF, Least Squares Difference” value [7, 21]?
Its value is 7.346 ms.

What about the “QTcF, Least Squares Mean” value [7, 21] of the same compound?
The value was 414.294 ms.

What about the “Time of longest placebo‐adjusted QTc interval” value ([7]; after dosing on day 14, sertraline 400 mg/day) of the same compound?
Its value is 4 h.

And the “Subjects with absolute QTcF interval of ≥480 milliseconds” value [7, 22]?
The value was “no participant”.

What about the “Subjects with maximum increase from baseline in QTcF of ≥60 milliseconds” value [7, 22] of the same compound?
Its value is “no participant”.

What about the “Predose (time 0) QTcF, mean (standard deviation)” value ([7]; day 14 of sertraline treatment period) of the same compound?
Its value is 414.9 (14.89) milliseconds.

With `COc1c(N2C[C@@H]3CCCN[C@@H]3C2)c(F)cc2c(=O)c(C(=O)O)cn(C3CC3)c12` [moxifloxacin] as the compound, how does the Fatigue (healthy subjects) read?
The Fatigue was 7 subjects.

And the Headache (healthy subjects)?
Its Headache is 11 subjects.

And the Insomnia (healthy subjects)?
Its Insomnia is 11 subjects.

What about the “TEAEs considered treatment related” value (healthy subjects) of the same compound?
The value was 92.

What about the “Total TEAEs reported” value (healthy subjects) of the same compound?
Its value is 105.

And the “Subjects reporting ≥1 AE” value (healthy subjects)?
The value was 42 subjects.

And the Population tmax [6]?
Its Population tmax is 3 h.
